Data on 1 compound can be found in US20060247220A1, “Preventing the crystallization of cholesterol using oxysterols” (priority 2003, published 2006).

The subject of series [1] is rabbits. The following applies: fed in diet; cited from earlier work.
A short description of series [2]: Crystallization of cholesterol from solution in sunflower seed oil at room temperature. The series is classed as physicochemical.
Procedure: Cholesterol was partially oxidized by heating in an oven with air at 80° C.
A 140 mg portion of the partially oxidized cholesterol was placed in a glass tube and 2.6 mL sunflower seed oil was added. The same amount of oil was added to tubes containing 60, 80, 100, 120 and 140 mg of pure cholesterol. All the tubes were held in a heating block at 95° C. until the sterols were dissolved. They were then held at room temperature (about 24° C.) for at least 3 weeks.
To determine the maximum solubilizing effect of the oxysterols, 35 mg and 70 mg of pure cholesterol were added to tubes containing 140 mg of the partially oxidized cholesterol, and 2.6 mL oil was added to each tube. The mixtures were brought into solution as described above, and held at room temperature.
The test system of series [3] is rabbits. As to conditions: fed in diet; cited from earlier work. This is another data set of the same source.
Series [4] deals with rabbits. As to conditions: in the diet, hydroperoxides added to cholesterol; cited from earlier work.

As for `CC(C)CCC[C@@H](C)[C@H]1CC[C@H]2[C@@H]3CC=C4C[C@@H](O)CC[C@]4(C)[C@H]3CC[C@]12C` [pure cholesterol, cholesterol], in the series with rabbits [1], the atherogenicity entry is “much more atherogenic to rabbits than oxysterols or a mixture of cholesterol and oxysterols”. Also, in series [2] (60 mg pure cholesterol in 2.6 mL sunflower seed oil, room temperature), the crystallization on standing entry was “crystallization did not occur”. The “time to complete crystallization” value in series [2] (80, 100, 120 and 140 mg pure cholesterol in 2.6 mL sunflower seed oil, room temperature (about 24° C.)) was “about 1 hour”. Besides, the atherosclerotic lesions entry in the series with rabbits [3] is “both elevated serum cholesterol and lesions”. The “atheroma / lesion formation in the aortas” value in the series with rabbits [4] is on record as “extensive atheroma formation”.
